# Results from patent US12281122B1, “PI3K inhibitors” (Cogent Biosciences, Inc., priority 2023, dated 2025).
# pIC50: −log10 of the molar value.
# How the values were obtained:
# [1] = tested on: T47D (PI3Kα-H1047R) cell line; assay: HTRF phospho-AKT(S473) cell assay in T47D cells; type: cell-based, human
# Summary of the method: (§1)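 T47D: RPMI + 10% FBS + 0.2 units/mL insulin, top 5 μM. SKBR3: McCoy's 5A + 10% FBS, top 10 μM, 70 ng/ml PDGF-BB last 15 min. Both: 12-pt 1:3, 2 h, 37° C, max 0.5% DMSO; HTRF pAKT(S473); IC50.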
# [2] = tested on: SKBR3 (PI3Kα-Wild Type) cell line; assay: HTRF phospho-AKT(S473) cell assay in SKBR3 cells; type: cell-based, human
# Summary of the method: as §1
# [3] = Homo sapiens; HTRF phospho-AKT(S473), T47D (PI3Kα-H1047R) cells, 2 hours compound incubation
# [4] = Homo sapiens, SK-BR-3; HTRF phospho-AKT(S473), SKBR3 (PI3Kα-Wild Type) cells, 2 hours compound incubation, PDGF-BB stimulated
# [5] = Homo sapiens; T47D (PI3Kα-H1047R) cells, HTRF phospho-AKT(S473), 2 hours compound incubation
# [6] = Homo sapiens, SK-BR-3; SKBR3 (PI3Kα-Wild Type) cells, HTRF phospho-AKT(S473), 2 hours compound incubation, PDGF-BB stimulated
SMILES,"pIC50 [1, 3]","pIC50 [2, 4]","pIC50 [1, 5]","pIC50 [2, 6]"
"Cc1cc([C@@H](C)Nc2ccc(Cl)nc2C(=O)NS(C)(=O)=O)c2nc(N3CCN(c4cnccn4)CC3)n(C)c(=O)c2c1 [Compound 714, (R)-6-chloro-3-((1-(3,6-dimethyl-4-oxo-2-(4-(pyrazin-2-yl)piperazin-1-yl)-3,4-dihydroquinazolin-8-yl)ethyl)amino)-N-(methylsulfonyl) picolinamide]",> 6.60,5.30 to 6.00,,
"Cc1cc([C@@H](C)Nc2ccc(Cl)nc2C(=O)NS(C)(=O)=O)c2nc(N3CCC4(CCOCC4)CC3)n(C)c(=O)c2c1 [Compound 690, (R)-6-chloro-3-((1-(3,6-dimethyl-4-oxo-2-(3-oxa-9-azaspiro[5.5]undecan-9-yl)-3,4-dihydroquinazolin-8-yl)ethyl)amino)-N-(methylsulfonyl) picolinamide]",> 6.60,5.30 to 6.00,,
"Cc1cc([C@@H](C)Nc2ccc(Cl)nc2C(=O)NS(C)(=O)=O)c2nc(N3[C@@H]4CC[C@H]3C[C@@H](n3ncc5ccccc53)C4)n(C)c(=O)c2c1 [Compound 696, 3-(((R)-1-(2-((1R,3R,5S)-3-(1H-indazol-1-yl)-8-azabicyclo[3.2.1]octan-8-yl)-3,6-dimethyl-4-oxo-3,4-dihydroquinazolin-8-yl)ethyl)amino)-6-chloro-N-(methylsulfonyl) picolinamide]",6.00 to 6.30,≤ 5.30,,
"Cc1cc([C@@H](C)Nc2ccc(Cl)nc2C(=O)NS(C)(=O)=O)c2nc(N3C[C@H]4C[C@@H]3CN4c3nccnc3C)n(C)c(=O)c2c1 [Compound 624, 6-chloro-3-(((R)-1-(3,6-dimethyl-2-((1R,4R)-5-(3-methylpyrazin-2-yl)-2,5-diazabicyclo [2.2.1]heptan-2-yl)-4-oxo-3,4-dihydroquinazolin-8-yl)ethyl)amino)-N-(methylsulfonyl) picolinamide]",6.30 to 6.60,≤ 5.30,,
"Cc1cc([C@@H](C)Nc2ccc(Cl)nc2C(=O)NS(C)(=O)=O)c2nc(N3CCC(n4nc(C#N)c5ccccc54)CC3)n(C)c(=O)c2c1 [Compound 304, (R)-6-chloro-3-((1-(2-(4-(3-cyano-1H-indazol-1-yl)piperidin-1-yl)-3,6-dimethyl-4-oxo-3,4-dihydroquinazolin-8-yl)ethyl)amino)-N-(methylsulfonyl) picolinamide]",,,6.30 to 6.60,≤ 5.30
"Cc1cc([C@@H](C)Nc2ccc(Cl)nc2C(=O)NS(C)(=O)=O)c2nc(N3[C@@H]4CC[C@H]3C[C@@H](c3cnc(C)nc3)C4)n(C)c(=O)c2c1 [Compound 299, 6-chloro-3-(((R)-1-(3,6-dimethyl-2-((1R,3R,5S)-3-(2-methylpyrimidin-5-yl)-8-azabicyclo[3.2.1]octan-8-yl)-4-oxo-3,4-dihydroquinazolin-8-yl)ethyl)amino)-N-(methylsulfonyl) picolinamide]",,,> 6.60,5.30 to 6.00
"Cc1cnc(N2CCN(c3nc4c([C@@H](C)Nc5ccc(Cl)nc5C(=O)NS(C)(=O)=O)cc(C)cc4c(=O)n3C)CC2)nc1 [Compound 532, (R)-6-chloro-3-((1-(3,6-dimethyl-2-(4-(5-methylpyrimidin-2-yl)piperazin-1-yl)-4-oxo-3,4-dihydroquinazolin-8-yl)ethyl)amino)-N-(methylsulfonyl) picolinamide]",6.30 to 6.60,≤ 5.30,,
"Cc1cc([C@@H](C)Nc2ccc(Cl)nc2C(=O)NS(C)(=O)=O)c2nc(N3C[C@@H]4[C@H](C3)[C@H]4c3cc[nH]n3)n(C)c(=O)c2c1 [Compound 699, 3-(((R)-1-(2-((1R,5S,6R)-6-(1H-pyrazol-3-yl)-3-azabicyclo[3.1.0]hexan-3-yl)-3,6-dimethyl-4-oxo-3,4-dihydroquinazolin-8-yl)ethyl)amino)-6-chloro-N-(methylsulfonyl) picolinamide]",6.30 to 6.60,5.30 to 6.00,,
"Cc1cc([C@@H](C)Nc2ccc(Cl)nc2C(=O)NS(C)(=O)=O)c2nc(N3CCC[C@H](C#N)C3)n(C)c(=O)c2c1 [Compound 209, 6-chloro-3-(((R)-1-(2-((S)-3-cyanopiperidin-1-yl)-3,6-dimethyl-4-oxo-3,4-dihydroquinazolin-8-yl)ethyl)amino)-N-(methylsulfonyl) picolinamide]",,,> 6.60,5.30 to 6.00
"Cc1cc([C@@H](C)Nc2ccc(Cl)nc2C(=O)NS(C)(=O)=O)c2nc(N3C[C@@H]4[C@H](C3)[C@H]4c3cnn(C)n3)n(C)c(=O)c2c1 [Compound 409, 6-chloro-3-(((R)-1-(3,6-dimethyl-2-((1R,5S,6R)-6-(2-methyl-2H-1,2,3-triazol-4-yl)-3-azabicyclo[3.1.0]hexan-3-yl)-4-oxo-3,4-dihydroquinazolin-8-yl)ethyl)amino)-N-(methylsulfonyl) picolinamide]",,,> 6.60,5.30 to 6.00
"Cc1cc([C@@H](C)Nc2ccc(Cl)nc2C(=O)NS(C)(=O)=O)c2nc(N3C[C@@H]4[C@H](C3)[C@H]4c3nn(C4CC4)cc3F)n(C)c(=O)c2c1 [Compound 569, 6-chloro-3-(((R)-1-(2-((1R,5S,6R)-6-(1-cyclopropyl-4-fluoro-1H-pyrazol-3-yl)-3-azabicyclo[3.1.0]hexan-3-yl)-3,6-dimethyl-4-oxo-3,4-dihydroquinazolin-8-yl)ethyl)amino)-N-(methylsulfonyl) picolinamide]",6.30 to 6.60,≤ 5.30,,
"Cc1cc([C@@H](C)Nc2ccc(Cl)nc2C(=O)NS(C)(=O)=O)c2nc(N3CCC[C@H](c4conc4C)C3)n(C)c(=O)c2c1 (relative stereo) [Compound 306, 6-chloro-3-(((R)-1-(3,6-dimethyl-2-((R*)-3-(3-methylisoxazol-4-yl)piperidin-1-yl)-4-oxo-3,4-dihydroquinazolin-8-yl)ethyl)amino)-N-(methylsulfonyl) picolinamide]",,,> 6.60,5.30 to 6.00
"Cc1cnc([C@H]2CCCN(c3nc4c([C@@H](C)Nc5ccc(Cl)nc5C(=O)NS(C)(=O)=O)cc(C)cc4c(=O)n3C)C2)nc1 (relative stereo) [Compound 621, 6-chloro-3-(((R)-1-(3,6-dimethyl-2-((R*)-3-(5-methylpyrimidin-2-yl)piperidin-1-yl)-4-oxo-3,4-dihydroquinazolin-8-yl)ethyl)amino)-N-(methylsulfonyl) picolinamide]",6.00 to 6.30,≤ 5.30,,
"COc1ccc([C@H]2[C@@H]3CN(c4nc5c([C@@H](C)Nc6ccc(Cl)nc6C(=O)NS(C)(=O)=O)cc(C)cc5c(=O)n4C)C[C@@H]32)cn1 [Compound 610, 6-chloro-3-(((R)-1-(2-((1R,5S,6S)-6-(6-methoxypyridin-3-yl)-3-azabicyclo[3.1.0]hexan-3-yl)-3,6-dimethyl-4-oxo-3,4-dihydroquinazolin-8-yl)ethyl)amino)-N-(methylsulfonyl) picolinamide]",> 6.60,≤ 5.30,,
"Cc1cc([C@@H](C)Nc2ccc(Cl)nc2C(=O)NS(C)(=O)=O)c2nc(N3[C@@H]4CC[C@H]3C[C@H](n3cc(C)cn3)C4)n(C)c(=O)c2c1 [Compound 481, 6-chloro-3-(((R)-1-(3,6-dimethyl-2-((1R,3S,5S)-3-(4-methyl-1H-pyrazol-1-yl)-8-azabicyclo[3.2.1]octan-8-yl)-4-oxo-3,4-dihydroquinazolin-8-yl)ethyl)amino)-N-(methylsulfonyl) picolinamide]",6.30 to 6.60,5.30 to 6.00,,
"Cc1cc([C@@H](C)Nc2ccc(Cl)nc2C(=O)NS(=O)(=O)[C@H]2C[C@@H](O)C2)c2nc(N3Cc4ccc(F)cc4C3)n(C)c(=O)c2c1 (relative stereo) [Compound 337, 6-chloro-3-(((R)-1-(2-(5-fluoroisoindolin-2-yl)-3,6-dimethyl-4-oxo-3,4-dihydroquinazolin-8-yl)ethyl)amino)-N-(((1S*,3S*)-3-hydroxycyclobutyl)sulfonyl)picolinamide]",,,> 6.60,5.30 to 6.00
"Cc1ccn([C@H]2[C@@H]3CN(c4nc5c([C@@H](C)Nc6ccc(Cl)nc6C(=O)NS(C)(=O)=O)cc(C)cc5c(=O)n4C)C[C@@H]32)c(=O)c1 [Compound 754, 6-chloro-3-(((R)-1-(3,6-dimethyl-2-((1R,5S,6S)-6-(4-methyl-2-oxopyridin-1(2H)-yl)-3-azabicyclo[3.1.0]hexan-3-yl)-4-oxo-3,4-dihydroquinazolin-8-yl)ethyl)amino)-N-(methylsulfonyl) picolinamide]",> 6.60,≤ 5.30,,
"Cc1cc([C@@H](C)Nc2ccc(Cl)nc2C(=O)NS(C)(=O)=O)c2nc(-c3ccc(Nc4ccccc4C)nc3)n(C)c(=O)c2c1 [Compound 283, (R)-6-chloro-3-((1-(3,6-dimethyl-4-oxo-2-(6-(o-tolylamino)pyridin-3-yl)-3,4-dihydroquinazolin-8-yl)ethyl)amino)-N-(methylsulfonyl) picolinamide]",,,> 6.60,≤ 5.30
"Cc1cc([C@@H](C)Nc2ccc(Cl)nc2C(=O)NS(C)(=O)=O)c2nc(-c3cc(F)c4cn(C)nc4c3)n(C)c(=O)c2c1 [Compound 824, (R)-6-chloro-3-((1-(2-(4-fluoro-2-methyl-2H-indazol-6-yl)-3,6-dimethyl-4-oxo-3,4-dihydroquinazolin-8-yl)ethyl)amino)-N-(methylsulfonyl) picolinamide]",> 6.60,5.30 to 6.00,,
"Cc1cc([C@@H](C)Nc2ccc(Cl)nc2C(=O)NS(C)(=O)=O)c2nc(N3CCO[C@@H](c4cnn(C)c4)C3)n(C)c(=O)c2c1 (relative stereo) [Compound 314, 6-chloro-3-(((R)-1-(3,6-dimethyl-2-((R*)-2-(1-methyl-1H-pyrazol-4-yl)morpholino)-4-oxo-3,4-dihydroquinazolin-8-yl)ethyl)amino)-N-(methylsulfonyl) picolinamide]",,,> 6.60,≤ 5.30
